Key:
[1] = Intranasal PK profile in rats, plasma hydrocodone and hydromorphone by LC-MS/MS
[2] = Chemical stability: hydrolysis in 5% NaHCO3; assay type: physicochemical; conditions: 5% NaHCO3, one hour
[3] = Water solubility / feasibility of intravenous or intranasal dosing; conditions: with regard to intravenous or intranasal dosing at oral equivalent doses
[4] = Oral PK profile in rats, plasma hydrocodone and hydromorphone by LC-MS/MS
[5] = Chemical stability: hydrolysis to hydrocodone in 1N HCl; conditions: 1 hour
[6] = equivalent to 2 mg/kg freebase hydrocodone, FIG. 7
[7] = equivalent to 2 mg/kg freebase hydrocodone, FIG. 8

Q: For `COc1ccc2c3c1O[C@H]1C(=O)CC[C@H]4[C@@H](C2)N(C)CC[C@]314.O=C(O)C(O)C(O)C(=O)O` [Hydrocodone.BT, hydrocodone bitartrate], which “hydrocodone AUC, higher than Ibu-HC” value ([1]; Example 6, FIG. 11) is on record?
A: The value was “approximately 300%”.

Q: And the “hydrocodone Cmax, higher than Ibu-HC” value ([1]; Example 6, FIG. 11)?
A: The value was roughly 525%.

Q: For `COc1ccc2c3c1OC1C(OC(=O)C(C)c4ccc(CC(C)C)cc4)=CCC4C(C2)N(C)CCC314` (stereo not drawn) [Ibu-HC, ibuprofen-hydrocodone], which “hydrocodone plasma concentrations compared with Hydrocodone.BT” value ([1]; Example 6, FIG. 11) is on record?
A: Its value is “significantly lower”.

Q: What about the “hydromorphone plasma concentration compared with Hydrocodone.BT” value ([1]; Example 6, FIG. 12) of the same compound?
A: Its value is “very low plasma concentration”.

Q: And the “hydrocodone plasma concentrations compared with Adipate-HC” value [1, 6]?
A: Its value is “significantly lower”.

Q: And the “hydromorphone plasma concentration compared with Adipate-HC” value [1, 7]?
A: The value was “very low plasma concentration”.

Q: What about the “initial amount of conjugate hydrolyzed” value ([2]; ambient (~20° C.)) of the same compound?
A: The value was 0%.

Q: What about the “initial amount of conjugate hydrolyzed” value ([2]; oil bath 100° C.) of the same compound?
A: The value was 22%.

Q: And the water solubility [3]?
A: Its water solubility is “very low water solubility”.

Q: What about the “hydromorphone AUC compared with Diglycolate-HC” value ([4]; equivalent of 2 mg/kg hydrocodone freebase, FIG. 6) of the same compound?
A: The value was “similar”.

Q: And the “hydrocodone and hydromorphone plasma concentrations compared with unconjugated Hydrocodone.BT” value ([4]; equivalent to 2 mg/kg freebase hydrocodone, FIG. 9 and FIG. 10)?
A: Its value is “similar”.

Q: And the “AUC and Cmax values (hydrocodone and hydromorphone) compared with Hydrocodone.BT” value ([4]; same dose based on hydrocodone freebase)?
A: The value was “within the range of bioequivalence”.

Q: Which “hydrocodone plasma concentrations during subsequent elimination compared with Hydrocodone.BT” value ([4]; equivalent to 2 mg/kg freebase hydrocodone, FIG. 9) does the source give for `COc1ccc2c3c1OC1C(OC(=O)/C=C/c4ccccc4)=CCC4C(C2)N(C)CCC314` (stereo not drawn) [Cinnamate-HC, cinnamate-hydrocodone] here?
A: Its value is “similar”.

Q: Which “hydrocodone AUC, higher than Ibu-HC” value [1, 6] does the source give for `COc1ccc2c3c1OC1C(OC(=O)CCCCC(=O)O)=CC[C@H]4[C@@H](C2)N(C)CC[C@]314` (stereo partly drawn) [Adipate-HC] here?
A: The value was “approximately 170%”.

Q: What about the “hydrocodone Cmax, higher than Ibu-HC” value [1, 6] of the same compound?
A: Its value is roughly 245%.

Q: And the “hydromorphone AUC, higher than Ibu-HC” value [1, 7]?
A: Its value is “approximately 940%”.

Q: And the “hydromorphone Cmax, higher than Ibu-HC” value [1, 7]?
A: Its value is ~1,010%.

Q: And the “initial amount of conjugate hydrolyzed” value ([2]; ambient (~20° C.))?
A: The value was 3%.

Q: And the “initial amount of conjugate hydrolyzed” value ([2]; oil bath 100° C.)?
A: Its value is 100%.

Q: And the water solubility [3]?
A: The water solubility was “water-soluble”.

Q: And the “initial amount of conjugate hydrolyzed” value ([5]; ambient (~20° C.))?
A: The value was 13%.

Q: And the “initial amount of conjugate hydrolyzed” value ([5]; oil bath 100° C.)?
A: The value was 100%.

Q: What does the source list for `COc1ccc2cc(C(C)C(=O)OC3=CCC4C5Cc6ccc(OC)c7c6C4(CCN5C)C3O7)ccc2c1` (stereo not drawn) [Naproxen-HC, naproxen-hydrocodone]?
A: initial amount of conjugate hydrolyzed ([2]; ambient (~20° C.)): 0%; initial amount of conjugate hydrolyzed ([2]; oil bath 100° C.): 8%; initial amount of conjugate hydrolyzed ([5]; ambient (~20° C.)): 0%; initial amount of conjugate hydrolyzed ([5]; oil bath 100° C.): 33%

Q: With `COc1ccc2c3c1OC1C(OC(=O)COCC(=O)O)=CC[C@H]4[C@@H](C2)N(C)CC[C@]314` (stereo partly drawn) [Diglycolate-HC] as the compound, how does the water solubility [3] read?
A: Its water solubility is “water-soluble”.

Source: patent publication US20120142720A1, “Phenylethanoic Acid, Phenylpropanoic Acid and Phenylpropenoic Acid Conjugates and Prodrugs of Hydrocodone, Methods of Making and Use Thereof” (KEMPHARM, INC., priority 2009, published 2012)
